Source: US20150104519A1, “Pharmaceutical Compositions” (Alpharma Pharmaceuticals LLC, priority 2007, published 2015)
Structures can show the parent of a compound that is named as a salt.

How the values were obtained:
[1] = in comparison to a 15 mg dose of hydrocodone
[2] = cited from earlier work
morphine effects = conditions: three 100-mg doses of naltrexone; MS Contin; cited from earlier work
mu over delta sites = conditions: cited from earlier work

Row | Molecule | Equianalgesic dose, Calculated Dose [1] [mg] | further results
1 | COc1ccc2c3c1O[C@H]1[C@@H](O)C=C[C@H]4[C@@H](C2)N(C)CC[C@@]341 [Codeine] | 90.0 | 
2 | COc1ccc2c3c1OC1C(=O)CC[C@H]4[C@@H](C2)N(C)CC[C@]314 (stereo partly drawn) [Hydrocodone, 4,5-epoxy-3-methoxy-17-methylmorphinan-6-one] | 15.0 | 
3 | CN1CC[C@]23CCCC[C@H]2[C@H]1Cc1ccc(O)cc13 [Levorphanol] | 1.8 | 
4 | CCC(=O)C(CC(C)N(C)C)(c1ccccc1)c1ccccc1 (stereo not drawn) [Methadone] | 9.0 | 
5 | COc1ccc2c3c1OC1C(=O)CC[C@@]4(O)[C@@H](C2)N(C)CC[C@]314 (stereo partly drawn) [Oxycodone, 4,5-epoxy-14-hydroxy-3-methoxy-17-methylmorphinan-6-one] | 13.5 | 
6 | O=C1CC[C@@]2(O)[C@H]3Cc4ccc(O)c5c4[C@@]2(CCN3CC2CC2)[C@H]1O5 [hydrochloride salt of naltrexone, Naltrexone HCl] |  | soluble in water [2]: about 100 mg/cc
7 | O=C1CC[C@@]2(O)[C@H]3Cc4ccc(O)c5c4[C@@]2(CCN3CC2CC2)[C@H]1O5 [naltrexone] |  | blockade of morphine effects (morphine effects): blocked; blocking action, site preference (mu over delta sites): strong preferential blocking action against mu over delta sites
8 | Meperidine | 135.0 | 
